The source of these data is patent US12178800B2, “Sulforaphane-melatonin-like compound” (priority 2018, dated 2024).

For assay [1], the system named is 2-Thiobarbituric Acid Reactive Substances (TBARS). Description: TBARS levels in mouse tongues. Format: in vivo, ICR mice. Conditions: 12 days after irradiation. The source says:
(§1) The scoring of oral mucositis was based on a modification of the method of Sonis et al. To assess the severity of oral mucositis, mice were anesthetized with isoflurane every day. The oral mucositis score was: 0=normal; 1=partial hyperemia, erythema and swelling; 2=overall hyperemia, erythema and swelling; 3=epidermolysis, hyperemia and erythema; 4=extensive epidermolysis and bleeding; 5=bleeding and abscesses. Myeloperoxidase (MPO) activity is a marker for neutrophils in inflamed tissue. MPO activity was measured in mouse tongues using a modification of the method of Chen et al. After mice had been killed by cervical dislocation 12 days after irradiation, tongue samples (n=10 per group) were removed and stored at −70° C. until required for assay. […] MPO activity was measured using a Microplate Reader (NJ-2300; Biotec, Tokyo, Japan) at 450 nm. MPO activity was calculated by measuring the slope of absorbance calibrated using MPO standards (Wako Biochemicals) and expressed as MPO/g tongue. […] TBARS levels were measured using the Microplate Reader (Biotec) at 540 nm. TBARS levels were calculated by measuring the slope of absorbance calibrated using TBARS standards and expressed as TBARS/g tongue. […] The number of TUNEL-positive cells on the tongue tips were counted and expressed as a percentage. […] Data were analyzed using one-way analysis of variance (ANOVA) followed by the Steel-Dwass test. […]

In assay [2] the test system is peripheral blood. Description: Peripheral blood counts after focal irradiation. The assay is classed as in vivo, Gottingen mini-pigs. An excerpt:
Blood samples were collected via the ear vein into sample tubes containing ethylenediaminetetraacetic acid at different time points (before irradiation, 3, 7, 21, and 35 days after irradiation). Peripheral eosinophils were automatically counted using a Hemavet System (Drew Scientific, UK).

The subject of assay [3] is Myeloperoxidase (MPO). Description: Myeloperoxidase (MPO) activity in mouse tongues. Format: in vivo, ICR mice. As to conditions: 12 days after irradiation.
Source text: as §1

The test system of assay [4] is mouse tongues. Description: Histopathology (H&E) of tongue specimens after X-ray irradiation. The assay is classed as in vivo, ICR mice. Conditions: 12 days post-irradiation.
Assay [5] has as its system irradiated skin of pigs. Description: Skin biopsy histology (hematoxylin and eosin): basal cell density and epidermal thickness. The assay is classed as in vivo, Gottingen mini-pigs. Here is the method:
A 5 mm punch biopsy was performed under anesthesia to obtain a skin sample from the non-irradiated healthy skin and the irradiated skin area 3, 7, 21, and 35 days after irradiation. After collection, skin biopsy samples were pinned to a cork to maintain the 5 mm size. Biopsy samples of non-irradiated skin were obtained from each pig before irradiation. All biopsy samples were processed and embedded in paraffin wax after fixation in 10% buffered formalin, then cut into 4 μm thick coronal sections and deparaffinized. Next, the sections were stained with hematoxylin and eosin and examined by optical microscopy. The longest rete ridge on each slide was selected and measured from the bottom of the basal layer to the bottom of the stratum corneum, avoiding the areas in which the inclusion appeared to be oblique. The mean values were then calculated based on the measurements of each section on each slide. The cell density of the basal layers was determined by counting the cells in the basement membrane at a depth of at least 5 mm. The results were expressed as the number of cells per millimeter of basement membrane.
The data were expressed as the means±the standard error of the mean (SEM) values. Differences between groups were evaluated by one-way analysis of variance (ANOVA) followed by a Student-Newman-Keuls post hoc test for multiple comparisons. In all cases, a p<0.05 was considered significant.

In assay [6] the test system is mouse tongues. Description: TUNEL staining of tongue sections (apoptosis). Format: in vivo, ICR mice. Conditions: 12 days post-irradiation, control 23.7%.
Source text: as §1

The mark [7] stands for this setting: 21 and 35 days after irradiation, decrease not significant.

For the molecule `COc1cc2c(CCCCN=C=S)c[nH]c2cc1O` [6OHM-6-HITC], the “TBARS levels vs. control group” value is listed as “lower” in assay [1] (30 mg/kg i.p.) and “significant decrease” in assay [1] (300 mg/kg i.p.). In assay [2] (setting [7]), the “eosinophils in the blood” value is reported as “decreased”. The “neutrophils in the blood” value in assay [2] (setting [7]) is “decreased”. Also, the “radioprotective effect on peripheral blood (white blood cell count)” value in assay [2] (initially (7 days after exposure)) is listed as “did not show a radioprotective effect”. In addition, the “MPO activity vs. control group” value in assay [3] (30 mg/kg i.p.) and in assay [3] (300 mg/kg i.p.) was “significantly lower” throughout. For the same molecule, the “degree of epidermolysis of the tongue” value in assay [4] is listed as “preserved”. In assay [4], the “infiltration of inflammatory cells” value was “decreased”. Besides, the “basal cell counts (density) in the epidermis” value in assay [5] (21 days after irradiation, p<0.01 vs. vehicle-treated irradiation group) was “significantly ameliorated”; in assay [5] (35 days after irradiation, p<0.05 vs. vehicle-treated irradiation group) it was “significantly ameliorated”. For the same molecule, the “thickness of the epidermis” value in assay [5] (35 days after irradiation, p<0.01 vs. vehicle-treated irradiation group) was “prevented this decrease”. The entries for the “percentage of TUNEL-positive cells” value in assay [6] (30 mg/kg i.p.) and in assay [6] (300 mg/kg i.p.) were 9.9% and 8.6%, respectively.
